Data on one compound can be found in patent US5117052A, “Physiologically active substances, benastatins A and B, and production and use thereof” (priority 1990, dated 1992).

Assay [1] has as its system Mycabacterium smegmatis ATCC607. Put plainly: Agar dilution assay, minimum growth inhibition concentration. In kind it is cell-based. As to conditions: read-out: Minimum growth-inhibition concentration. A general note: In agar dilution the substance is mixed into plates at graded concentrations.
The next assay has as its target T1, glutathione transferase (Rattus norvegicus, UniProt P04905).
T1 construct: obtained from a homogenate of rat liver; from tissue; host or cells: rat liver homogenate, partially purified by DEAE-cellulose column and ammonium sulfate salting-out
Put plainly: Glutathione transferase inhibition activity (3,4-dichloronitrobenzene/glutathione, absorption at 345 nm). In kind it is biochemical. On the procedure: The glutathione transferase inhibition activity was determined by a modified method based on the known method described in Biochemical and Biophysical Research Communications, 112, 980-985 (1983).
A test tube was charged with a solution mixture consisting of (a) 0.1 ml of 90 mM glutathione (reduction type), (b) 0.05 ml of 20 mM 3,4-dichloronitrobenzene, (c) 1.7 ml of 0.1M potassium phosphate buffer solution (pH 7.4) and (d) 0.1 ml of an aqueous solution containing the test compound. The solution mixture was heated to 37° C. for 3 minutes, and admixed with 0.05 ml of a glutathione transferase solution to effect a reaction at 37° C. for 30 minutes. The glutathione transferase solution employed was one which had been obtained from a homogenate of rat liver and which had been patially refined by means of a DEAE-cellulose column and of salting out-operation with ammonium sulfate.
After the completion of the reaction, the sample was measured for the light absorption (a) at 345 nm. At the same time, a control sample which was free of the test compound and which contained only the buffer solution was measured for the light absorption (b) at 345 nm.
The glutathione transferase inhibition activity was determined according to the formula: […]
IC50, which is the concentration of a test compound required for 50% inhibition, was recorded.

A further assay deals with Candida tropicalis F-1. Kind of assay: Agar dilution assay, minimum growth inhibition concentration. Format: cell-based. As to conditions: Candida tropicalis, F1, read-out: Minimum growth-inhibition concentration.
In the next assay the test system is Pyricularia oryzae. Kind of assay: microbe, parasite or virus in culture. In kind it is cell-based. Particulars: read-out: Minimum growth-inhibition concentration.

Structures are written as SMILES. In brackets after ≈: the same amount, converted by molar mass. Where only a bound is given, the exact number is not on record here.

T1 sequence (P04905 2-218 limits assumed): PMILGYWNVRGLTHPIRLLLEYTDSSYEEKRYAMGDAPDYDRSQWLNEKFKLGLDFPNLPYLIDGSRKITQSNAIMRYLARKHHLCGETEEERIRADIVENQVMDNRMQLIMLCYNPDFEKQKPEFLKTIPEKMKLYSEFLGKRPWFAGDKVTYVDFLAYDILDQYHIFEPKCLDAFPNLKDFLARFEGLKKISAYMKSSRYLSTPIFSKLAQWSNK

As for `CCCCCc1cc2c(c(O)c1C(=O)O)-c1cc3c(c(O)c1CC2)C(=O)c1c(O)cc(O)cc1C3(C)C` [Benastatin B, benastatin B], the values for the MIC (in assay [1]; in the assay on Candida tropicalis F-1; with Pyricularia oryzae) were 12.5 µg/mL (≈ 24.9 µM), more than 50 µg/mL and 50 µg/mL (≈ 99.5 µM), respectively. On glutathione transferase, half-maximal inhibition (IC50) required 1830 nM.
